The values below come from publication PMC10692717, “Peptides designed from a bacteriophage capsid protein function as synthetic transcription repressors” (The Journal of Biological Chemistry, 2023).

Like-named read-outs stand apart in the source and are kept apart here. Where no end group is shown, it is not given here.

The target in data set [1] is peptide 33 (bacteriophage P4 (designed variant)) (UniProt P05460). As to the kind of experiment: EMSA. Particulars: EMSA/competition: 10 mM Tris-HCl pH 8.0, 250 mM NaCl, 37 C, 10 min, 10 nM labeled nucleic acid, fluorescence: 10 mM Tris-Cl pH 8, 500 mM NaCl, 20-37 C.
In a further data set the test system is dsDNA. The note with it: ref [30], [31], [32]; cited from earlier work. From the text:
(§1) AMPs are prevalent in all forms of life. They are part of the natural defense mechanism of the organism. […] Another such small peptide that has the potential to be useful against drug-resistant bac ...

The test system of a further data set is bacterial cells. The note with it: cited from earlier work.
For a further data set, the system named is E. coli. Particulars: also cause cell death; ref [29]; cited from earlier work.
Excerpt: as §1

The next data set relates to bacteria. Particulars: acts by blocking the synthesis of macromolecules; ref [28]; cited from earlier work.
Excerpt: as §1

Data set [2] has as its target peptide 33 (bacteriophage P4 (designed variant)) (UniProt P05460). As to the kind of experiment: competition. Particulars: EMSA/competition: 10 mM Tris-HCl pH 8.0, 250 mM NaCl, 37 C, 10 min, 10 nM labeled nucleic acid, fluorescence: 10 mM Tris-Cl pH 8, 500 mM NaCl, 20-37 C, scale: fold excess over 292 bp dsDNA for 50% release.

For orientation: Kd means a measure of binding affinity in units of concentration. Turning to 283 nt gfc RNA, the equilibrium dissociation constant (Kd) in data set [1] was found to be 1000 nM. “indolicidin: 13-mer peptide with tryptophan-rich sequences of the cathelicidin family of host defense peptides (ILPWKWPWWPWRR; ends and bridges not checked; UniProt P33046 131-143, looked up)”: the “binding to dsDNA” value in the data set with dsDNA is listed as “binds to dsDNA”.

As for 160 bp dsDNA, the Kd in data set [1] was determined as 4000 nM. With `NC[C@H]1O[C@H](O[C@H]2[C@H](O)[C@@H](O[C@H]3O[C@H](CO)[C@@H](O)[C@H](N)[C@H]3O)[C@H](N)C[C@@H]2N)[C@H](O)[C@@H](O)[C@@H]1O` [kanamycin], the elongated cell phenotype result in the data set with bacterial cells (ref [20]) is listed as “elongated cells phenotypes”.

In the case of 499 bp dsDNA, the Kd in data set [1] amounted to 4700 nM.

For gentamycin, the elongated cell phenotype entry with bacterial cells (ref [23]) is given as “elongated cells phenotypes”. On to `O=C(O)c1cn(C2CC2)c2cc(N3CCNCC3)c(F)cc2c1=O` [ciprofloxacin], for which the elongated cell phenotype result in the data set with bacterial cells (ref [19]) was “elongated cells phenotypes”. Take “HNP-2: human neutrophils-derived peptide defensin (CYCRIPACIAGERRYGTCIYQGRLWAFCC; ends and bridges not checked; cysteine pairing not given here; UniProt P59665 66-94, looked up)”: in the data set on E. coli, the “inhibition of DNA, RNA, and protein synthesis” value (shortened to “inhibition of DNA, RNA”) is “inhibit the synthesis of DNA, RNA, and proteins”. On to Pleurocidin, for which the antibacterial activity result in the data set with bacteria is given as “broad-spectrum antibacterial activity”. With “HNP-3: human neutrophils-derived peptide defensin”, the “inhibition of DNA, RNA” value in the data set on E. coli was “inhibit the synthesis of DNA, RNA, and proteins”. lambda tR1 RNA (284 nt) yielded a binding signal in data set [2] of 2.8.

292 bp dsDNA displayed an equilibrium dissociation constant (Kd) in data set [1] of 2750 nM. On to `NCC[C@H](O)C(=O)N[C@@H]1C[C@H](N)[C@@H](O[C@H]2O[C@H](CN)[C@@H](O)[C@H](O)[C@H]2O)[C@H](O)[C@H]1O[C@H]1O[C@H](CO)[C@@H](O)[C@H](N)[C@H]1O` [amikacin], for which the elongated cell phenotype result with bacterial cells (ref [21]) is listed as “elongated cells phenotypes”. In turn, “ATCTTCTCTCATCCGCCAAAACAGCC [26-mer ssDNA (RS1816)]” returned a Kd in data set [1] of 2000 nM. With “HNP-1: human neutrophils-derived peptide defensin”, the “inhibition of DNA, RNA” value with E. coli was “inhibit the synthesis of DNA, RNA, and proteins”.

On to `O=C(N[C@H](CO)[C@H](O)c1ccc([N+](=O)[O-])cc1)C(Cl)Cl` [chloramphenicol], for which the elongated cell phenotype result in the data set on bacterial cells (ref [21], [22]) is reported as “elongated cells phenotypes”. For the compound “TGATCCTCCTCCTCCTGATCCTCCTCCTCCTGATCCTCCTCCTCCTGAGCGTTTCATCATTTCGAAGAAATCGTC [75-mer ssDNA (RS2230)]”, the Kd in data set [1] was found to be 740 nM. In addition, the binding signal in data set [2] turned out to be 9.5.
